Results on four compounds are retold here after patent US11931325B2, “Hair-growth promoting composition and usage thereof” (Eaderm Co., Ltd., priority 2015, dated 2024).

Assay [1] relates to C3H mouse and C57BL/6 mouse. Nature of the assay: Hair growth experiment using wild-type mice (application of aminoguanidine). To be noted: C3H and C57BL/6 mice, 10% (w/v) in saline, 100 μl applied to the epilation area, five days a week for three weeks. It is filed as in vivo. As to the method: In this experiment, the same method as Example 2 was used, except that the C3H mouse and C57BL/6 mouse were used. The whole back of the mouse was shaved using an electric shaver under anesthesia (mixed anesthesia of ketamine hydrochloride and xylazine hydrochloride) at 8 weeks of age, and the hair was removed with a commercially available depilatory cream (Epilat hair removal cream from Kracie Holdings, Ltd.). Application of aminoguanidine was carried out on the day the experiment began. The usage and dosage of the aminoguanidine used are as described below. Aminoguanidine was purchased from Tokyo Chemical Industry Co., Ltd. and dissolved to 10% (w/v) in saline solution, and 100 μl was applied to the epilation area. For the control group, saline solution was used. Consecutive application for five days from Monday to Friday was continued for three weeks, and the back was photographed daily.

In the next assay the test system is ob/ob mouse. In words: Hair growth experiment using an iNOS inhibitor in shaved/depilated ob/ob mice. It is filed as in vivo. To be noted: for time until deposition of melanin pigments in the skin was observed: hair removed at 8 weeks of age, intraperitoneal in saline (10, 20 and 30 mg/kg for 1400W, L-NIL, BYK191023), time from start of administration; for area of hair growth compared to 1400W: 4 weeks. The method, then: For this experiment, the ob/ob mouse purchased from Sankyo Labo Service Corporation was used. The whole back of the mouse was shaved using an electric shaver under anesthesia (mixed anesthesia of ketamine hydrochloride and xylazine hydrochloride) at 8 weeks of age, and the hair was removed with a commercially available depilatory cream (Epilat hair removal cream from Kracie Holdings, Ltd.). Administration or application of each iNOS inhibitor was carried out on the day the experiment began. The usage and dosage of the iNOS inhibitors used are as described below. Selective iNOS inhibitors, 1400W, L-NIL and BYK191023, were purchased from Tocris Bioscience and dissolved in saline solution, and each of them was administered intraperitoneally at 10 mg/kg, 20 mg/kg and 30 mg/kg. For the control group, saline solution was administered intraperitoneally. Consecutive administration for five days from Monday to Friday was continued for one month. A similarly selective iNOS inhibitor, aminoguanidine, was purchased from Tokyo Chemical Industry Co., Ltd. and dissolved in saline solution to 10% (w/v), and 100 μl was applied to the epilation area. For the control group, saline solution was used. Consecutive application for five days from Monday to Friday was continued for one month. The back was photographed once a week and observation was continued until 12 weeks of age. Every seven days from the start of the administration, the state of hair growth in the shaved area was rated using the hair growth score standard below.
(Hair Growth Score Standard)
1=hair growth in less than 10% of the shaved area
2=hair growth in equal to or more than 10% and less than 20% of the shaved area
3=hair growth in equal to or more than 20% and less than 30% of the shaved area
4=hair growth in equal to or more than 30% and less than 40% of the shaved area
5=hair growth in equal to or more than 40% and less than 50% of the shaved area
6=hair growth in equal to or more than 50% and less than 60% of the shaved area
7=hair growth in equal to or more than 60% and less than 70% of the shaved area
8=hair growth in equal to or more than 70% and less than 80% of the shaved area
9=hair growth in equal to or more than 80% and less than 90% of the shaved area
10=hair growth in equal to or more than 90% of the shaved area

Setting [2] is: 10% (w/v) in saline, 100 μl applied to the epilation area, time from start of application.

In the case of `N=C(N)NN` [aminoguanidine], the “shortening of the telogen phase compared to the control group” value in assay [1] is listed as “two to three”. In addition, in the assay on ob/ob mouse (setting [2]), the “time until hair growth was confirmed” value is “two”, the “time until hair returned to almost the same as the original condition” value is “four” and the “time until widespread hair growth was confirmed” value is reported as “three”.

Consider `COc1ccnc(CCc2nc3ncccc3[nH]2)c1` [BYK191023], for which the “time until deposition of melanin pigments in the skin was observed” value in the assay with ob/ob mouse (five days a week for one month) is listed as “three”. In addition, the “area of hair growth compared to 1400W” value in the assay with ob/ob mouse (intraperitoneal administration) is reported as “less”.

Consider `CC(=N)NCc1cccc(CN)c1` [1400W], for which the “time until widespread hair growth was confirmed” value with ob/ob mouse (intraperitoneal administration, five days a week for one month) is given as “four”.

With `CC(=N)NCCCC[C@H](N)C(=O)O` [L-NIL], the “time until deposition of melanin pigments in the skin was observed” value with ob/ob mouse (five days a week for one month) is on record as “three”. In addition, the “area of hair growth compared to 1400W” value with ob/ob mouse (intraperitoneal administration) is given as “less”.
